Source: paper PMC5532651, “Bistratamides M and N, Oxazole-Thiazole Containing Cyclic Hexapeptides Isolated from Lissoclinum bistratum Interaction of Zinc (II) with Bistratamide K” (Marine Drugs, 2017)

What was measured:
[1] = test system: MDA-MB-231 human breast adenocarcinoma cells; assay: Cell proliferation / cytotoxicity, MDA-MB-231 breast; type: cell-based; conditions: for LC50: concentration producing 50% cell death vs control; for GI50: concentration producing 50% inhibition of cell growth vs control, NCI algorithm; for TGI: concentration producing total growth inhibition vs control
Method: (§1) The cytotoxic activity of compounds 1 and 2 was tested against NSLC A-549 human lung carcinoma cells, MDA-MB-231 human breast adenocarcinoma cells, HT-29 human colorectal carcinoma cells, and PSN1 (human pancreatic carcinoma cells). The concentration giving 50% inhibition of cell growth (GI50) was calculated according to the procedure described in the literature. Cell survival was estimated using the National Cancer Institute (NCI) algorithm. Three dose response parameters were calculated for 1 and 2.

[2] = test system: HT-29 human colorectal carcinoma cells; assay: Cell proliferation / cytotoxicity, HT-29 colon; type: cell-based; conditions: for LC50: concentration producing 50% cell death vs control; for GI50: concentration producing 50% inhibition of cell growth vs control, NCI algorithm; for TGI: concentration producing total growth inhibition vs control
Method: as §1

[3] = test system: NSLC A-549 human lung carcinoma cells; assay: Cell proliferation / cytotoxicity, NSLC A-549 lung; type: cell-based; conditions: for LC50: concentration producing 50% cell death vs control; for GI50: NCI algorithm; for TGI: concentration producing total growth inhibition vs control
Method: as §1

[4] = test system: PSN1 (human pancreatic carcinoma cells); assay: Cell proliferation / cytotoxicity, PSN1 pancreas; type: cell-based; conditions: for LC50: concentration producing 50% cell death vs control; for GI50: concentration producing 50% inhibition of cell growth vs control, NCI algorithm; for TGI: concentration producing total growth inhibition vs control
Method: as §1

[5] = test system: recombinant human topoisomerase I; assay: Enzymatic Topoisomerase 1 (Top1) assay; type: biochemical; conditions: up to highest concentration tested 100 μM (range 100 to 0.2 μM); 50 pM enzyme; 1 h preincubation, 1 h reaction, room temperature, pH 8.0; H19 dye fluorescence
Method: The activity of human topoisomerase I was determined based on the increase in fluorescence of a commercial dye (“H19”, Profoldin, Westborough, MA, USA) when interacting with DNA and the higher number of interaction points present in supercoiled DNA with respect to relaxed DNA. Therefore, the activity of the enzyme causes a decrease of fluorescence intensity when the probe is added. The enzyme reaction is performed in a final volume of 20 μL in 384 black wells. Compounds 1 and 2, at twice their final concentrations, were mixed with 50 pM recombinant human topoisomerase I (Profoldin, Westborough, MA, USA) in 10 μL of 10 mM Tris-HCl pH 8.0 with 150 mM sodium chloride, 3 mM magnesium chloride and 5% (v/v) glycerol and incubated for 1 h at room temperature. Then, reaction was started by the addition of 10 μL of supercoiled DNA (Profoldin, Westborough, MA, USA) at 25 μg/mL in the same buffer and the mixture was incubated at room temperature for 1 h. […] After 1 h at room temperature the degree of conversion from supercoiled to relaxed DNA was determined by monitoring fluorescence intensity (excitation at 485 nm, emission at 535 nm) in a microtiter plate reader. […] IC50 values were calculated by fitting the results to a typical four parameters logistic curve by nonlinear regression analysis.

[6] = test system: human tumor cell lines A-549 (lung), HT-29 (colon), MDA-MB-231 (breast) and PSN1 (pancreas); assay: Cytotoxicity against four human tumor cell lines (summary in words); type: cell-based; conditions: GI50 values in the micromolar range
Method: as §1

[7] = concentration producing 50% inhibition of cell growth vs control

| SMILES | LC50 [1] | GI50 [1] | TGI [1] | LC50 [2] | GI50 [2] | TGI [2] | LC50 [3] | GI50 [3, 7] | TGI [3] | LC50 [4] | GI50 [4] | TGI [4] | Top1 inhibition [5] | cytotoxic activity (in words) [6] | GI50 ([1]; Homo sapiens) | GI50 ([2]; Homo sapiens) | GI50 ([3]; Homo sapiens, A549, concentration producing 50% inhibition of cell growth vs control) | GI50 ([4]; Homo sapiens) |
| --- | --- | --- | --- | --- | --- | --- | --- | --- | --- | --- | --- | --- | --- | --- | --- | --- | --- | --- |
| CC[C@H](C)[C@@H]1NC(=O)c2csc(n2)[C@H](C)NC(=O)c2coc(n2)[C@H](C)NC(=O)c2csc1n2 [Bistratamide M (1), Bistratamide M] | >20.0 µM | 18 µM | >20.0 µM | >20.0 µM | 16 µM | >20.0 µM | >20.0 µM | 9.1 µM | >20.0 µM | >20.0 µM | 9.8 µM | >20.0 µM | failed to show any hint of inhibition even at the highest concentration tested | moderate cytotoxic activity with GI50 values in the micromolar range |  |  |  |  |
| CC[C@H](C)[C@@H]1NC(=O)c2csc(n2)[C@@H](C)NC(=O)c2coc(n2)[C@H](C)NC(=O)c2csc1n2 [Bistratamide N (2), Bistratamide N] | >20.0 µM | > 20 µM | >20.0 µM | >20 µM | 13 µM | >20 µM | >20.0 µM | 11 µM | >20.0 µM | >20.0 µM | 15 µM | >20.0 µM | failed to show any hint of inhibition even at the highest concentration tested | moderate cytotoxic activity with GI50 values in the micromolar range |  |  |  |  |
| COc1cccc2c1C(=O)c1c(O)c3c(c(O)c1C2=O)C[C@@](O)(C(=O)CO)C[C@@H]3O[C@H]1C[C@H](N)[C@H](O)[C@H](C)O1 [Doxorubicin, reference compound] | 2.4 µM |  | 0.5 µM | >17.2 µM |  | 0.9 µM | >17.2 µM |  | 0.9 µM | 3.1 µM |  | 0.5 µM |  |  | 0.2 µM | 0.3 µM | 0.2 µM | 0.2 µM |
